From ChEMBL document CHEMBL1201862, “PubChem BioAssay data set” (2004)
Active and inactive are the calls of the source.

Key:
[1] = molecular target: FAD-linked sulfhydryl oxidase ALR (Homo sapiens, UniProt P55789); test: inhibitors of human ALR sulfhydryl oxidase, dose response, biochemical, H2O2 detection, luminescence, cherry-pick (AID 493248)
cells = type: functional
H9c2 = test: cells; type: functional, cell-based; details: Rattus norvegicus, H9c2, Myocardium;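 note: confirmatory concentration-response retest of ultra-high-throughput screening hits for modulation of myocardial damage; cell death induced by hydrogen peroxide oxidative stress; compound pretreatment for 60 min then peroxide exposure for 2 h; potency is for protecting the cells against peroxide damage rather than for killing them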
Protein RecA = molecular target: T1, Protein RecA (Mycobacterium tuberculosis, UniProt P9WHJ3); test: Fluorescence Cell-Free Homogeneous Dose Retest to Identify Inhibitors of RecA-Intein Splicing Activity. [Related pubchem assays (depositor defined):AID2097, AID2223, AID489010, AID492950]; type: functional
T1 sequence (P9WHJ3 whole entry): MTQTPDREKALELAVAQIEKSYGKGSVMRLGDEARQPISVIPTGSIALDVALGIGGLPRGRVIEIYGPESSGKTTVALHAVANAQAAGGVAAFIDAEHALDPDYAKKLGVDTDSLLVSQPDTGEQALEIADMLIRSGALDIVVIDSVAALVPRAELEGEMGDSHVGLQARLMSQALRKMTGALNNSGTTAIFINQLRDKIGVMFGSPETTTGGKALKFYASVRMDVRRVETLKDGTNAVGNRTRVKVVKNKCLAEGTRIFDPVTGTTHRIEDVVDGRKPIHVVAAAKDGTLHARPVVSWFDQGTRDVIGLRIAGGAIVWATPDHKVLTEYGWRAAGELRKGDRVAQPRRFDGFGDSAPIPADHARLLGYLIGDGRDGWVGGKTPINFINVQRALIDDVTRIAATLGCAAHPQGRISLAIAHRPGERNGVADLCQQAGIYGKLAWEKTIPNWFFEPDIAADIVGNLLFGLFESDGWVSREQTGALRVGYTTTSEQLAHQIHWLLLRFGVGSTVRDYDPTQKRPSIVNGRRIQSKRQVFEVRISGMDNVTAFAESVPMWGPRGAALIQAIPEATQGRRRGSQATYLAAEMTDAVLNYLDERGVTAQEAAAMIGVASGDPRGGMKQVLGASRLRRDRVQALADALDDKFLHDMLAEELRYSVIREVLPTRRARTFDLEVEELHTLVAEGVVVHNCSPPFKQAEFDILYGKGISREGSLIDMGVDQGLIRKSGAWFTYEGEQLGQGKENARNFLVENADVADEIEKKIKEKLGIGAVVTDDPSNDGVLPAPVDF

[2] = molecular target: T2, Replicative DNA helicase DnaB (Mycobacterium tuberculosis, UniProt P9WMR3); test: DnaB intein splicing inhibitors, dose response, biochemical, cell-free fluorescence (AID 449749); type: functional
T2 sequence (P9WMR3 whole entry): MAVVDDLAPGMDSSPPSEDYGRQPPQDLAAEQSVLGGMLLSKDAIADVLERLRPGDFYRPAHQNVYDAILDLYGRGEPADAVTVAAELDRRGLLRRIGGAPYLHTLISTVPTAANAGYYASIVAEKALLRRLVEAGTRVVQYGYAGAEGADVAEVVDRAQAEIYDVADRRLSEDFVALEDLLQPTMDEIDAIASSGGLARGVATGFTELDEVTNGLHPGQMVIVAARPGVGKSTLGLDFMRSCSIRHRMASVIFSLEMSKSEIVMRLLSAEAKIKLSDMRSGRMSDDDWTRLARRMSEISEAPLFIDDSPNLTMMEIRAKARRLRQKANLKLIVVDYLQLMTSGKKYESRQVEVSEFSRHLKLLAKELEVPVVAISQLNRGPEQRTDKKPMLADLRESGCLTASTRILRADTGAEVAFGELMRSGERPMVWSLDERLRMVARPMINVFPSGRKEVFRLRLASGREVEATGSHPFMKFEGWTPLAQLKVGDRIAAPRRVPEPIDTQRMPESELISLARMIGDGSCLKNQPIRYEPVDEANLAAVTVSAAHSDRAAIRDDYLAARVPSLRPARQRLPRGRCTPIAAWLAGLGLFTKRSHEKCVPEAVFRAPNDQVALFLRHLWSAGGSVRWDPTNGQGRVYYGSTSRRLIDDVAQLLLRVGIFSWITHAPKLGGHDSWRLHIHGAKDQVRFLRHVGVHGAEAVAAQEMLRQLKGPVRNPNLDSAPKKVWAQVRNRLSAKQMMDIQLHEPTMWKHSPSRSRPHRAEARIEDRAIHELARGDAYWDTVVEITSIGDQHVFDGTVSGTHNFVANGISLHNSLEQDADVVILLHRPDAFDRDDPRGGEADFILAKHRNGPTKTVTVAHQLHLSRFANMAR

[3] = Luminescence Cell-Based Dose Retest to Confirm Inhibitors of Cancer Stem Cells. [Related pubchem assays (depositor defined):AID2717, AID2721]; type: functional; details: Homo sapiens
H4 = test: Luminescence Cell-Based Dose Response HTS to Identify Activators of 5'UTR Stem-Loop Driven Prion Protein mRNA Translation in H4 Neuroglioblastoma Cells. [Related pubchem assays: 1829 (Project Summary), 1814 (Primary HTS)]; type: functional; details: Homo sapiens
[4] = Luminescence Cell-Based Dose Response HTS to Identify Activators of Luciferase Translation or Activity in H4 […] Cells. [Related pubchem assays: 1829 (Project Summary), 1814 (Primary HTS)]; type: functional
[5] = molecular target: T3, DNA repair protein RAD52 homolog (Homo sapiens, UniProt P43351); type: functional, biochemical
T3 sequence (P43351 whole entry): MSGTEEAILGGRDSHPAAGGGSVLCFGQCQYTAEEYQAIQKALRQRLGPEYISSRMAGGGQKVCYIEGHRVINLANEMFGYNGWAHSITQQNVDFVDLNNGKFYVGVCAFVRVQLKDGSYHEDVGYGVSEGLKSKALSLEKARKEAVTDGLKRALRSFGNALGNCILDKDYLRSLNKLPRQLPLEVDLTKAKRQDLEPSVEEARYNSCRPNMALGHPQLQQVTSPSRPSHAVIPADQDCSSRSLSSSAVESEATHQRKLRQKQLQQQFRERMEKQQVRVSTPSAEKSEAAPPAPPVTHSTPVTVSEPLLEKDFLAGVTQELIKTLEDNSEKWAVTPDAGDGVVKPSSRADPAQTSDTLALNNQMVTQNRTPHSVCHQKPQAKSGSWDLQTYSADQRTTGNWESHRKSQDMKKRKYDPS

[6] = Luminescence Cell-Based Dose Confirmation HTS to Identify Activators of 5'UTR Stem-Loop Driven Alpha-Synuclein mRNA Translation in H4 Neuroglioblastoma Cells. [Related pubchem assays: 1829 (Project Summary), 1814 (Primary HTS)]; type: functional
[7] = molecular target: T4, Ubiquitin-conjugating enzyme E2 N (Homo sapiens, UniProt P61088); type: functional;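 note: Dose-response confirmation in a TR-FRET assay detecting UBC13-driven polyubiquitin chain formation, inhibition measured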
T4 sequence (P61088 whole entry): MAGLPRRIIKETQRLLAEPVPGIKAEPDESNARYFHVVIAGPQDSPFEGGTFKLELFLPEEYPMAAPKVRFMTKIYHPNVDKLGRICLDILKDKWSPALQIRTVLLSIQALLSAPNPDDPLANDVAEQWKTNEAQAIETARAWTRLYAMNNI

[8] = molecular target: T5, Rac GTPase-activating protein 1 (Homo sapiens, UniProt Q9H0H5); test: MgcRacGAP GTPase-activating activity inhibitors, confirmation, biochemical, ADP Hunter fluorescence, primary and confirmatory (AID 624330); type: functional
T5 sequence (Q9H0H5 whole entry): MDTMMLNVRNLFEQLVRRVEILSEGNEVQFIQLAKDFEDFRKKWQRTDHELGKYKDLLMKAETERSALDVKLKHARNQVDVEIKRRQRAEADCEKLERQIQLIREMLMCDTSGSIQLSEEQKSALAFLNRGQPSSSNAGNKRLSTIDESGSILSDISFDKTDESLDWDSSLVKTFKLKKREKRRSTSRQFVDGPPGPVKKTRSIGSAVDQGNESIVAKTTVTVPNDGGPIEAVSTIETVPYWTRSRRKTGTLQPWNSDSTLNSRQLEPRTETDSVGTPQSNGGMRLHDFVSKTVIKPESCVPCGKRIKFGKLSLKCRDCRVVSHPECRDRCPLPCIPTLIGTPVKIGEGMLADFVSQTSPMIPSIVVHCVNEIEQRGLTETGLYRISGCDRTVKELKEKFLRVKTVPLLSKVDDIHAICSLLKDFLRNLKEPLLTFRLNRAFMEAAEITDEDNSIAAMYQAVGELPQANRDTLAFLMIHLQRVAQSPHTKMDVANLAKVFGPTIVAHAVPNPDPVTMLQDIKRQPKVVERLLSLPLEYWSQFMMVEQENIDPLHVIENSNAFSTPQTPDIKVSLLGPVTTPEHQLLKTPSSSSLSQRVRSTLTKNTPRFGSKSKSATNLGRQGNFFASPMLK

[9] = molecular target: T6, RNA-binding protein pos-1 (Caenorhabditis elegans, UniProt G5EF15); test: inhibitors of POS-1/mex-3 RNA binding, dose response, biochemical, fluorescence polarization (AID 1964);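 note: purified POS-1 fused to maltose binding protein made in E. coli; potency of compounds blocking POS-1 binding to fluorescent RNA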
T6 sequence (G5EF15 whole entry): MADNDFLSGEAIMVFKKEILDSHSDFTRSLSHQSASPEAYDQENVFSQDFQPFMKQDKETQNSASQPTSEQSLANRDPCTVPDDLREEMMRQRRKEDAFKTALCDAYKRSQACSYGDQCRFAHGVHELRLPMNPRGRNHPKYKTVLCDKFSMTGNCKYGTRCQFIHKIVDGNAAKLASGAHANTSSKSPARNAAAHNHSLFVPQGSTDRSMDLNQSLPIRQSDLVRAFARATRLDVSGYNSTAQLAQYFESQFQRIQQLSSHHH

[10] = molecular target: T7, Zinc finger protein mex-5 (Caenorhabditis elegans, UniProt Q9XUB2); test: MEX-5/TCR-2 RNA interaction inhibitors, dose response, biochemical, C. elegans, fluorescence polarization (AID 1960)
T7 sequence (Q9XUB2 whole entry): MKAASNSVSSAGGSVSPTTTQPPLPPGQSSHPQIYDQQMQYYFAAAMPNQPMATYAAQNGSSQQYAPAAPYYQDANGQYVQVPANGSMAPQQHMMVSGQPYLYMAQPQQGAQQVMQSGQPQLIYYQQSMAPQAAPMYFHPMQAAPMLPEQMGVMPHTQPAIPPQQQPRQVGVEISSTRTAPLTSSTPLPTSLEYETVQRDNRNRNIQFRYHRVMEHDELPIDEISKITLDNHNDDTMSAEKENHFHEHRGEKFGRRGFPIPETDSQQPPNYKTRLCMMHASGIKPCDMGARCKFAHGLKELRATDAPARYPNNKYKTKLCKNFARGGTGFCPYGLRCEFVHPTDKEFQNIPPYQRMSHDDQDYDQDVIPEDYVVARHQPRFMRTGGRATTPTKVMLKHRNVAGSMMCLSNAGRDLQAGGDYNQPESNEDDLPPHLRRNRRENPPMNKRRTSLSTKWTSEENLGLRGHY

Chain of FAD-linked sulfhydryl oxidase ALR (P55789 whole entry): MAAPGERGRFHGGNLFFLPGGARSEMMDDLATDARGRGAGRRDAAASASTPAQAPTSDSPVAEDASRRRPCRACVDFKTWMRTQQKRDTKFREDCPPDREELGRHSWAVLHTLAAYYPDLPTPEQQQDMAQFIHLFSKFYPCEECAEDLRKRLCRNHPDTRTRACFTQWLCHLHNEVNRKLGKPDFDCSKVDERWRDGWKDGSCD

| Structure (SMILES) | AC50 [1] | IC50 (H9c2) | other results |
| --- | --- | --- | --- |
| COc1cc(OC)c2ccc(=O)oc2c1C(CC(=O)N1CCCC1)c1ccc(N(C)C)cc1 (configuration not stated) | 2.89 µM (active) | – | – |
| Brc1ccc(-c2ccc(CNCc3ccccn3)o2)cc1 | – | – | IC50 (cells): 1.25 µM (active) |
| O=C(CSc1nc(O)c2ccccc2n1)N1CCN(S(=O)(=O)c2ccccc2)CC1 | – | > 79 µM (inactive) | – |
| COc1cc(/C(C)=N/NC(=O)CN2CCN(S(=O)(=O)c3ccc(C)cc3)CC2)ccc1O | 3.76 µM (active) | – | – |
| C[C@H](NC(=O)c1[nH]cnc1C(=O)NCC(=O)OCc1ccccc1)c1ccccc1 | – | > 79 µM (inactive) | – |
| COc1ccc(CNc2nc3ccccc3n2C(C)C)c(O)c1 | 0.146 µM (active) | – | – |
| O=C(NCCc1c[nH]c2ccccc12)C(=O)NCC(c1ccco1)N1CCN(c2ccccc2F)CC1 (configuration not stated) | – | 12.2 µM (active) | – |
| Cn1cccc1CC(=O)N/N=C/c1ccc([N+](=O)[O-])cc1 | 6.99 µM (active) | – | – |
| Cc1ccc(S(=O)(=O)N(C(=O)c2ccncc2)c2ccc(OC(=O)c3ccncc3)c3ccccc23)c(C)c1 | – | – | EC50 (Protein RecA): 10 µM (active); AC50 [2]: 15.4 µM (active) |
| O=C(Cc1nnc(O)c2ccccc12)OCC(=O)c1ccccc1 | – | 20.5 µM (active) | – |
| Cc1cc(C(=O)NNc2ccc(F)cc2)no1 | 10.5 µM (active) | – | AC50 [3]: 2.05 µM (active) |
| O=C(c1ccc([N+](=O)[O-])o1)N1CCN(Cc2ccccc2)CC1 | – | – | IC50 (cells): 0.55 µM (active) |
| O=C(Nc1cccc([N+](=O)[O-])c1)c1[nH]ncc1Cl | 0.847 µM (active) | – | – |
| CCN1CCCC(OC(=O)c2cc(-c3ccc(C)cc3)nc3ccccc23)C1 (configuration not stated) | – | – | EC50 (H4): > 120 µM (not active); EC50 [4]: 31.1 µM (active); AC50 [5]: 8.59 µM (active); EC50 [6]: > 120 µM (not active) |
| c1ccc2c(c1)nc(Nc1ccc3c(c1)OCO3)c1nnnn12 | – | 5.99 µM (active) | – |
| CCOCc1c(C(=O)NC2=C(C(=O)OCC)C(CC)=Nc3ccccc3N2)oc2ccccc12 | – | > 79 µM (inactive) | – |
| Cc1ccc(-c2nnc(COC(=O)c3cccs3)o2)cc1 | – | – | IC50 (cells): 17.5 µM (active) |
| Cc1ccc(C(=O)N/C(=C\c2ccc(-c3cccc([N+](=O)[O-])c3)o2)C(=O)NCCCN(C)C)cc1 | – | – | IC50 [7]: > 20 µM (inactive); AC50 [5]: 24.7 µM (active) |
| COc1ccc(N2CCN(C(=O)NC3CCCCC3)CC2)cc1 | 5.03 µM (active) | – | IC50 [8]: 137 µM (active) |
| CCOC(=O)CSc1nnc(CSc2nc(O)c3c4c(sc3n2)CCC4)n1C | – | > 79 µM (inactive) | – |
| Cc1ccc(/N=C/c2cc(Br)cc(Cl)c2O)cc1 | – | 10.4 µM (active) | EC50 [9]: > 300 µM (not active); EC50 [10]: > 300 µM (not active) |
| CCN(C(=O)CN1CCN(c2ccccc2O)CC1)c1c(N)n(Cc2ccccc2)c(=O)[nH]c1=O | 16.2 µM (active) | – | – |
| Cn1c(S)nnc1CSCc1ccc(Cl)c(Cl)c1 | 3.93 µM (active) | – | – |
